According to ChEMBL document CHEMBL3885881, “DrugMatrix”:

Species on record: Rattus norvegicus
Assay: DrugMatrix - Regimen: Daily Repeat
Assay type: toxicity, organism-based, Sprague-Dawley
Parameters: regimen Daily Repeat, gender Male, age 6-8 weeks
Conditions: in vivo, po, route oral GAVAGE, vehicle 100 % WATER; for ABSOLUTE BASOPHIL / ABSOLUTE EOSINOPHIL / ABSOLUTE LYMPHOCYTE / ABSOLUTE MONOCYTE / ABSOLUTE SEGMENTED NEUTROPHIL / BASOPHIL / EOSINOPHIL / ERYTHROCYTE COUNT / HEMATOCRIT / HEMOGLOBIN / LEUKOCYTE COUNT / LYMPHOCYTE / MEAN CORPUSCULAR HEMOGLOBIN / MEAN CORPUSCULAR HEMOGLOBIN CONCENTRATION / MEAN CORPUSCULAR VOLUME / MONOCYTE / NEUTROPHIL / NUCLEATED RED BLOOD CELLS / PLATELET COUNT: tissue Blood; for ALANINE AMINOTRANSFERASE / ALBUMIN / ALKALINE PHOSPHATASE / ASPARTATE AMINOTRANSFERASE / BLOOD UREA NITROGEN / CARBON DIOXIDE / CHLORIDE / CHOLESTEROL / CREATINE PHOSPHOKINASE / CREATININE / GLUCOSE / LACTATE DEHYDROGENASE / LIPASE / PHOSPHORUS / POTASSIUM / SODIUM / TOTAL BILIRUBIN / TOTAL PROTEIN / URIC ACID: tissue Plasma
[1] = 100 mg/kg, 120 h, dose level Low, time 5 day
[2] = 852 mg/kg, 72 h, dose level High, time 3 day
[3] = 852 mg/kg, 120 h, dose level High, time 5 day

## CC(C)(S)[C@@H](N)C(=O)O [PENICILLAMINE]
[1]
  ABSOLUTE BASOPHIL: 0 CELLS/uL
  ABSOLUTE EOSINOPHIL: 0 CELLS/uL
  ABSOLUTE LYMPHOCYTE: 6617.67 CELLS/uL
  ABSOLUTE MONOCYTE: 110.33 CELLS/uL
  ABSOLUTE SEGMENTED NEUTROPHIL: 338.67 CELLS/uL
  BASOPHIL: 0%
  EOSINOPHIL: 0%
  ERYTHROCYTE COUNT: 5.47 x10E6/uL
  HEMATOCRIT: 34.93%
  HEMOGLOBIN: 13.8 G/DL
  LEUKOCYTE COUNT: 7.07 x10E3/uL
  LYMPHOCYTE: 93.33%
  MEAN CORPUSCULAR HEMOGLOBIN: 25.27 pg
  MEAN CORPUSCULAR HEMOGLOBIN CONCENTRATION: 39.57 G/DL
  MEAN CORPUSCULAR VOLUME: 63.93 fL
  MONOCYTE: 1.67%
  NEUTROPHIL: 5%
  NUCLEATED RED BLOOD CELLS: 0 /100WBC
  PLATELET COUNT: 1075.33 x10E3/uL
  ALANINE AMINOTRANSFERASE: 51.33 u/L
  ALBUMIN: 4.07 G/DL
  ALKALINE PHOSPHATASE: 310.33 u/L
  ASPARTATE AMINOTRANSFERASE: 74.33 u/L
  BLOOD UREA NITROGEN: 13.67 mg/dL
  CARBON DIOXIDE: 34 mmol/L
  CHLORIDE: 99.67 MEQ/L
  CHOLESTEROL: 68.67 mg/dL
  CREATINE PHOSPHOKINASE: 197.67 u/L
  CREATININE: 0.13 mg/dL
  GLUCOSE: 152.67 mg/dL
  LACTATE DEHYDROGENASE: 129 u/L
  LIPASE: 9.67 u/L
  PHOSPHORUS: 10.77 mg/dL
  POTASSIUM: 6.13 MEQ/L
  SODIUM: 144.33 MEQ/L
  TOTAL BILIRUBIN: 0.17 mg/dL
  TOTAL PROTEIN: 5.83 G/DL
  URIC ACID: 1.17 mg/dL
[2]
  ABSOLUTE BASOPHIL: 0 CELLS/uL
  ABSOLUTE EOSINOPHIL: 0 CELLS/uL
  ABSOLUTE LYMPHOCYTE: 6326 CELLS/uL
  ABSOLUTE MONOCYTE: 89.33 CELLS/uL
  ABSOLUTE SEGMENTED NEUTROPHIL: 351.33 CELLS/uL
  BASOPHIL: 0%
  EOSINOPHIL: 0%
  ERYTHROCYTE COUNT: 5.64 x10E6/uL
  HEMATOCRIT: 34.8%
  HEMOGLOBIN: 13.1 G/DL
  LEUKOCYTE COUNT: 6.77 x10E3/uL
  LYMPHOCYTE: 93.67%
  MEAN CORPUSCULAR HEMOGLOBIN: 23.23 pg
  MEAN CORPUSCULAR HEMOGLOBIN CONCENTRATION: 37.67 G/DL
  MEAN CORPUSCULAR VOLUME: 61.73 fL
  MONOCYTE: 1.33%
  NEUTROPHIL: 5%
  NUCLEATED RED BLOOD CELLS: 0 /100WBC
  PLATELET COUNT: 1143.33 x10E3/uL
  ALANINE AMINOTRANSFERASE: 54.33 u/L
  ALBUMIN: 4.2 G/DL
  ALKALINE PHOSPHATASE: 349 u/L
  ASPARTATE AMINOTRANSFERASE: 71.33 u/L
  BLOOD UREA NITROGEN: 14 mg/dL
  CARBON DIOXIDE: 30.33 mmol/L
  CHLORIDE: 102.67 MEQ/L
  CHOLESTEROL: 88.33 mg/dL
  CREATINE PHOSPHOKINASE: 242 u/L
  CREATININE: 0.12 mg/dL
  GLUCOSE: 145.67 mg/dL
  LACTATE DEHYDROGENASE: 117.67 u/L
  LIPASE: 10 u/L
  PHOSPHORUS: 9.27 mg/dL
  POTASSIUM: 5.88 MEQ/L
  SODIUM: 147.53 MEQ/L
  TOTAL BILIRUBIN: 0.17 mg/dL
  TOTAL PROTEIN: 6.2 G/DL
  URIC ACID: 0.87 mg/dL
[3]
  ABSOLUTE BASOPHIL: 0 CELLS/uL
  ABSOLUTE EOSINOPHIL: 0 CELLS/uL
  ABSOLUTE LYMPHOCYTE: 6605.67 CELLS/uL
  ABSOLUTE MONOCYTE: 23.67 CELLS/uL
  ABSOLUTE SEGMENTED NEUTROPHIL: 604 CELLS/uL
  BASOPHIL: 0%
  EOSINOPHIL: 0%
  ERYTHROCYTE COUNT: 5.48 x10E6/uL
  HEMATOCRIT: 33.73%
  HEMOGLOBIN: 13.27 G/DL
  LEUKOCYTE COUNT: 7.23 x10E3/uL
  LYMPHOCYTE: 91.33%
  MEAN CORPUSCULAR HEMOGLOBIN: 24.23 pg
  MEAN CORPUSCULAR HEMOGLOBIN CONCENTRATION: 39.33 G/DL
  MEAN CORPUSCULAR VOLUME: 61.63 fL
  MONOCYTE: 0.33%
  NEUTROPHIL: 8.33%
  NUCLEATED RED BLOOD CELLS: 0 /100WBC
  PLATELET COUNT: 1213.67 x10E3/uL
  ALANINE AMINOTRANSFERASE: 35 u/L
  ALBUMIN: 4.23 G/DL
  ALKALINE PHOSPHATASE: 283.33 u/L
  ASPARTATE AMINOTRANSFERASE: 59.33 u/L
  BLOOD UREA NITROGEN: 13.33 mg/dL
  CARBON DIOXIDE: 33.33 mmol/L
  CHLORIDE: 99.67 MEQ/L
  CHOLESTEROL: 61.33 mg/dL
  CREATINE PHOSPHOKINASE: 202.33 u/L
  CREATININE: 0.12 mg/dL
  GLUCOSE: 131.67 mg/dL
  LACTATE DEHYDROGENASE: 133 u/L
  LIPASE: 9.67 u/L
  PHOSPHORUS: 10.7 mg/dL
  POTASSIUM: 6.12 MEQ/L
  SODIUM: 144.2 MEQ/L
  TOTAL BILIRUBIN: 0.2 mg/dL
  TOTAL PROTEIN: 6.07 G/DL
  URIC ACID: 1.23 mg/dL
